“Also recorded” adds a separate entry of the source.
Tests used:
SpCas9 = SpCas9 (Streptococcus pyogenes serotype M1, UniProt Q99ZW2); experiment: mCherry-GFP NHEJ assay; format: cell-based; parameters: host or cells: U2OS.eGFP-PEST; settings: 2-10 μM, 24 h
Method: NHEJ assay. Approximately 8,000 cells/well were plated in a 96-well format 24 h before transiently transfected with a total 100 ng of DN66 (mCherry-TAG-GFP reporter) and DN78 (SpCas9 and gRNA) plasmids (1:1) using Lipofectamine™ 2000 (Life Technologies™) 3. Transfected cells were allowed to grow in the indicated amount of compound or DMSO for 24 h. Cells were then fixed using 4% paraformaldehyde and imaged with the HCS NuclearMask™ Blue Stain (Life Technologies™) as the nuclear counter-staining agent. Imaging was performed with an IXM 137204 ImageXpress® Automated High Content Microscope (Molecular Devices™) at 20× magnification under three excitation channels (blue, green and red) with 9 acquiring sites per well. Images were analyzed in the MetaXpress® software to determine the % NHEJ and the data were plotted using GraphPad Prism 6. The Z′-value was calculated following the formula:
NHEJ assay. Approximately 8,000 cells/well were plated in a 96-well format 24 h before transiently transfected with a total 100 ng of DN66 (mCherry-TAG-GFP reporter) and DN78 (SpCas9 and gRNA) plasmids (1:1) using Lipofectamine™ 2000 (Life Technologies™)^3. […] Images were analyzed in the MetaXpress® software to determine the % NHEJ and the data were plotted using GraphPad Prism 6. The Z′-value was calculated following the formula: […]

S. aureus RN4220 = experiment: Toxicity study of compounds in bacterial culture (absence of phage); format: cell-based; settings: 20 μM, 16 h, no phage
Method: FIG. 79. Toxicity study of compounds in bacterial culture. Bacterial growth study in the presence of the compound. Bacterial cell S. aureus RN4220 strain was allowed to grow either in the presence of DMSO or 20 μM of compound BRD7087 or BRD5779 over 16 h. The experiment was performed in three technical replicates.
Bacterial study. Plasmid pRH248 harboring SpCas9, tracrRNA and a single-spacer array ([…]) (SEQ ID NO:7) targeting phage DNM474 was constructed via BsaI cloning onto pDB114 as described in Heler et al 6. Plate reader growth curves of bacteria infected with phage were conducted as described previously with minor modifications 7. Overnight cultures were diluted 1:100 into 2 ml of fresh BHI supplemented with appropriate antibiotics and 5 mM CaCl2) and grown to an OD600 of ˜0.2. Immune cells carrying pRH248 were diluted with cells lacking CRISPR-Cas in a 1:10,000 ratio. […] To produce plate reader growth curves, 200 μL of infected cultures, normalized for OD600, were transferred to a 96-well plate in triplicate. […]
Bacterial study. […] Plate reader growth curves of bacteria infected with phage were conducted as described previously with minor modifications^7. […] To produce plate reader growth curves, 200 μL of infected cultures, normalized for OD600, were transferred to a 96-well plate in triplicate. […]

U2OS.eGFP.PEST cells = experiment: Cell viability assay (ATP content) of U2OS.eGFP.PEST cells; format: cell-based, human; settings: for cytotoxicity (ATP content) in secondary screen: 20 μM compounds, 48 h; for cellular ATP-levels: U2OS cells, up to 20 μM, 24 h
Method: FIG. 14—Cell viability assay (ATP content) of U2OS.eGPF.PEST cells in the presence of compounds. Measurement of ATP content of U2OS.eGFP.PEST cells upon incubating with 20 μM compounds for 48 h. Error bars represent ±S.D. from technical replicates (n=3).
FIG. 22—Cell viability assay (ATP content) of U2OS.eGFP.PEST cells in the presence of compounds. Measurement ATP content of U2OS.eGFP.PEST cells upon incubating with BRD7087 and BRD5779 (5-20 μM) for 24 h. Error bars represent ±S.D. from technical replicates (n=3).
FIG. 58. Cell viability assay (ATP content) of U2OS.eGFP.PEST cells in the presence of compounds. Measurement of ATP content of U2OS.eGFP.PEST cells upon incubating with 20 μM compound for 48 h. Error bars represent±S.D. from technical replicates (n=3).
FIG. 66. Cell viability assay (ATP content) of U2OS.eGFP.PEST cells in the presence of compounds. Measurement of ATP content of U2OS.eGFP.PEST cells upon incubating with BRD7087 and BRD5779 (5-20 μM) for 24 h. Error bars represent ±S.D. from technical replicates (n=3).

HEK293T cells = experiment: Cell viability assay (ATP content) of HEK293T cells; format: cell-based; settings: up to 20 μM, 24 h
Method: FIG. 23—Cell viability assay (ATP content) of HEK293T cells in the presence of compounds. Measurement of ATP content of HEK293T cells upon incubating with BRD7087 and BRD5779 (5-20 μM) for 24 h. Error bars represent ±S.D. from technical replicates (n=3).
FIG. 67. Cell viability assay (ATP content) of HEK293T cells in the presence of compounds. Measurement of ATP content of HEK293T cells upon incubating with BRD7087 and BRD5779 (5-20 μM) for 24 h. Error bars represent ±S.D. from technical replicates (n=3).

Sequence of SpCas9 (Q99ZW2 whole entry): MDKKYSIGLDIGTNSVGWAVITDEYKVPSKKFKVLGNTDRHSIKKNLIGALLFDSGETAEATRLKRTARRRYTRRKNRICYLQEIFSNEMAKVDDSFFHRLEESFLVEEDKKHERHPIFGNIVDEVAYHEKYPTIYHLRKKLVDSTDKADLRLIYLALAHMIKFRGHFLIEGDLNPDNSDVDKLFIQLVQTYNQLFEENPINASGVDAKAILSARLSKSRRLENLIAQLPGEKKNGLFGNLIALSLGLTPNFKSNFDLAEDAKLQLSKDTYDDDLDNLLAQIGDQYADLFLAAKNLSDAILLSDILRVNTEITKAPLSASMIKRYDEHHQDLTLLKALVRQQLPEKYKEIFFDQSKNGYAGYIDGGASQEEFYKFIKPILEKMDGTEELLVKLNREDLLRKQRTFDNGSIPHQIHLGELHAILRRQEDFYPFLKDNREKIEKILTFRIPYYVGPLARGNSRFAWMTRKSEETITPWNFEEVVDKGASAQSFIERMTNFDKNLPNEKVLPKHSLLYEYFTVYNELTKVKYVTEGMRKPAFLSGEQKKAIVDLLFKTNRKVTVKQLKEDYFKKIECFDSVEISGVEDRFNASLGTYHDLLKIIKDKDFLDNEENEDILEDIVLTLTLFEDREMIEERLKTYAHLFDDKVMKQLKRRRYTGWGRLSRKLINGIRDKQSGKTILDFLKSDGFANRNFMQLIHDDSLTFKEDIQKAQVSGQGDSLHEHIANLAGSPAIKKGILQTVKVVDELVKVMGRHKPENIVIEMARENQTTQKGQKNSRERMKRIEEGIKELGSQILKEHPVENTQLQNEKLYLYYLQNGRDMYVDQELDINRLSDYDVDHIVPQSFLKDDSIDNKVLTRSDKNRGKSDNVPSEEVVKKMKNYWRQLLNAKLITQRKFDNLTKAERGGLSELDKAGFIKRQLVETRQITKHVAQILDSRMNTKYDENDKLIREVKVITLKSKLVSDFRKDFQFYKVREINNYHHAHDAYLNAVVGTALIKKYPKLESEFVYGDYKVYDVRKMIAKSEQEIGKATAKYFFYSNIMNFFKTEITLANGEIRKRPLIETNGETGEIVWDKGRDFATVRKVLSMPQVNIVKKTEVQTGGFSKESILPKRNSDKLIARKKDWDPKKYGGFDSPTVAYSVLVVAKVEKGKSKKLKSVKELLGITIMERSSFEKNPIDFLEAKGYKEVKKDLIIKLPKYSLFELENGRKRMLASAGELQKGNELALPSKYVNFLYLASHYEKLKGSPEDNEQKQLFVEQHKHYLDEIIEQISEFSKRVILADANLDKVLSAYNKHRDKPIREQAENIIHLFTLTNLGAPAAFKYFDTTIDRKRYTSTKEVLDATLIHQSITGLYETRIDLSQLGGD

Compound	inhibition of SpCas9-mediated NHEJ (SpCas9)	toxicity to bacteria in the presence of inhibitor alone (S. aureus RN4220)	cytotoxicity (ATP content) in secondary screen (U2OS.eGFP.PEST cells)	cellular ATP-levels (U2OS.eGFP.PEST cells)	cellular ATP-levels (HEK293T cells)
COc1ccc(-c2ccc3c(c2)[C@H]2[C@H](CCN2Cc2ccncc2)[C@@H](CO)N3)cc1 [BRD5779, ((3aR,4S,9bR)-8-(4-Methoxyphenyl)-1-(pyridin-4-ylmethyl)-2,3,3a,4,5,9b-hexahydro-1H-pyrrolo[3,2-c]quinolin-4-yl)methanol]	active; also recorded: Dose-dependent inhibition of SpCas9-mediated NHEJ	non-toxic in the absence of phage	non-toxic	did not significantly alter	did not significantly alter
OC[C@H]1Nc2ccc(-c3cccc(F)c3)cc2[C@H]2[C@@H]1CCN2Cc1ccncc1 [BRD7087, ((3aR,4S,9bR)-8-(3-Fluorophenyl)-1-(pyridin-4-ylmethyl)-2,3,3a,4,5,9b-hexahydro-1H-pyrrolo[3,2-c]quinolin-4-yl)methanol]	active; also recorded: Dose-dependent inhibition of SpCas9-mediated NHEJ	non-toxic in the absence of phage	non-toxic	did not significantly alter	did not significantly alter

— patent publication US11965159B2, “Compositions and methods for regulating proteins and nucleic acids activities” (THE BROAD INSTITUTE, INC., priority 2019, dated 2024)
